± gives the standard deviation of the averaged measurements.
Assays:
[1] = compound: CC(=O)NCC(=O)N1[C@@H]2CC[C@H]1c1ccc(Nc3ncc(C(F)(F)F)c(NC4CCC4)n3)cc12; experiment: surviving fraction relative to DMSO-only wells; higher = less growth inhibition; conditions: exposure time: 5 days
In short: (§1)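 Continuous five-day exposure to inhibitors at 0.5, 1, 5, 10, 50, 100, 500 and 1000 nM started 24 hours after log-phase tumour cell lines were seeded at 250–500 cells per well in 384-well plates. Luminescence was read after 10 minutes at room temperature. Viability is given as surviving fraction, meaning CellTiter-Glo luminescence normalised to the median of DMSO-only wells.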

PACLITAXEL [2] = compound: T1, CC(=O)O[C@H]1C(=O)[C@@]2(C)[C@H]([C@H](OC(=O)c3ccccc3)[C@]3(O)C[C@H](OC(=O)[C@H](O)[C@@H](NC(=O)c4ccccc4)c4ccccc4)C(C)=C1C3(C)C)[C@]1(OC(C)=O)CO[C@@H]1C[C@@H]2O [PACLITAXEL]; experiment: as above; conditions: exposure time: 5 days
In short: as §1

OSI-906 [3] = compound: T2, C[C@]1(O)C[C@@H](c2nc(-c3ccc4ccc(-c5ccccc5)nc4c3)c3c(N)nccn32)C1 [OSI-906]; experiment: as above; conditions: exposure time: 5 days
In short: as §1

CAMPTOTHECIN [4] = compound: T3, CC[C@@]1(O)C(=O)OCc2c1cc1n(c2=O)Cc2cc3ccccc3nc2-1 [CAMPTOTHECIN]; experiment: as above; conditions: exposure time: 5 days
In short: as §1

CARBOPLATIN [5] = compound: T4, O=C(O)C1(C(=O)O)CCC1.[NH2-].[NH2-].[Pt+2] [CARBOPLATIN]; experiment: as above; conditions: exposure time: 5 days
In short: as §1

CELECOXIB [6] = compound: T5, Cc1ccc(-c2cc(C(F)(F)F)nn2-c2ccc(S(N)(=O)=O)cc2)cc1 [CELECOXIB]; experiment: as above; conditions: exposure time: 5 days
In short: as §1

GEFITINIB [7] = compound: T6, COc1cc2ncnc(Nc3ccc(F)c(Cl)c3)c2cc1OCCCN1CCOCC1 [GEFITINIB]; experiment: as above; conditions: exposure time: 5 days
In short: as §1

[8] = compound: CC(=O)c1c(C)c2cnc(Nc3ccc(N4CCNCC4)cn3)nc2n(C2CCCC2)c1=O; experiment: as above; conditions: exposure time: 5 days
In short: as §1

YM155 [9] = compound: T7, COCC[n+]1c2c(n(Cc3cnccn3)c1C)C(=O)c1ccccc1C2=O [YM155]; experiment: as above; conditions: exposure time: 5 days
In short: as §1

[10] = compound: CC(=O)NCC(=O)N1[C@@H]2CC[C@H]1c1ccc(Nc3ncc(C(F)(F)F)c(NC4CCC4)n3)cc12; experiment: area under dose-response curve of surviving fraction (unscaled, Aref=0) (surviving fraction x log10(nM)); higher = more resistant; conditions: exposure time: 5 days; dose range 0.5-1000 nM
In short: (§2)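 Each tumour cell line was screened three times in 384-well plates, receiving eight inhibitor concentrations from 0.5 to 1000 nM for five days. CellTiter-Glo luminescence gave viability, normalised to DMSO-only wells. Using the drc R package, surviving fractions were fitted with 3-parameter logistic dose-response curves, and the unscaled activity area over log10 dose (Aref = 0) was taken as the area under the curve.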

PACLITAXEL [11] = compound: T1, PACLITAXEL; experiment: as above; conditions: exposure time: 5 days; dose range 0.5-1000 nM
In short: as §2

OSI-906 [12] = compound: T2, OSI-906; experiment: as above; conditions: exposure time: 5 days; dose range 0.5-1000 nM
In short: as §2

CAMPTOTHECIN [13] = compound: T3, CAMPTOTHECIN; experiment: as above; conditions: exposure time: 5 days; dose range 0.5-1000 nM
In short: as §2

CARBOPLATIN [14] = compound: T4, CARBOPLATIN; experiment: as above; conditions: exposure time: 5 days; dose range 0.5-1000 nM
In short: as §2

CELECOXIB [15] = compound: T5, CELECOXIB; experiment: as above; conditions: exposure time: 5 days; dose range 0.5-1000 nM
In short: as §2

GEFITINIB [16] = compound: T6, GEFITINIB; experiment: as above; conditions: exposure time: 5 days; dose range 0.5-1000 nM
In short: as §2

[17] = compound: CC(=O)c1c(C)c2cnc(Nc3ccc(N4CCNCC4)cn3)nc2n(C2CCCC2)c1=O; experiment: as above; conditions: exposure time: 5 days; dose range 0.5-1000 nM
In short: as §2

YM155 [18] = compound: T7, YM155; experiment: as above; conditions: exposure time: 5 days; dose range 0.5-1000 nM
In short: as §2

MDAMB468 BREAST
surviving fraction ([1]; 0.5 nM): 0.977 ± 0.023
surviving fraction ([1]; 1 nM): 1.04 ± 0.046
surviving fraction ([1]; 5 nM): 1.05 ± 0.026
surviving fraction ([1]; 10 nM): 0.987 ± 0.041
surviving fraction ([1]; 50 nM): 1.03 ± 0.047
surviving fraction ([1]; 100 nM): 0.507 ± 0.047
surviving fraction ([1]; 500 nM): 0.146 ± 0.01
surviving fraction ([1]; 1000 nM): 0.151 ± 0.018
surviving fraction (PACLITAXEL [2]; 0.5 nM): 0.973 ± 0.024
surviving fraction (PACLITAXEL [2]; 1 nM): 0.771 ± 0.056
surviving fraction (PACLITAXEL [2]; 5 nM): 0.144 ± 0.018
surviving fraction (PACLITAXEL [2]; 10 nM): 0.0737 ± 0.0015
surviving fraction (PACLITAXEL [2]; 50 nM): 0.064 ± 0.001
surviving fraction (PACLITAXEL [2]; 100 nM): 0.0567 ± 0.0091
surviving fraction (PACLITAXEL [2]; 500 nM): 0.057 ± 0.0036
surviving fraction (PACLITAXEL [2]; 1000 nM): 0.0563 ± 0.013
surviving fraction (OSI-906 [3]; 0.5 nM): 0.867 ± 0.12
surviving fraction (OSI-906 [3]; 1 nM): 0.833 ± 0.13
surviving fraction (OSI-906 [3]; 5 nM): 0.95 ± 0.032
surviving fraction (OSI-906 [3]; 10 nM): 0.955 ± 0.092
surviving fraction (OSI-906 [3]; 50 nM): 1.06 ± 0.087
surviving fraction (OSI-906 [3]; 100 nM): 1.03 ± 0.036
surviving fraction (OSI-906 [3]; 500 nM): 0.851 ± 0.09
surviving fraction (OSI-906 [3]; 1000 nM): 0.846 ± 0.019
surviving fraction (CAMPTOTHECIN [4]; 0.5 nM): 0.872 ± 0.061
surviving fraction (CAMPTOTHECIN [4]; 1 nM): 0.832 ± 0.095
surviving fraction (CAMPTOTHECIN [4]; 5 nM): 0.782 ± 0.094
surviving fraction (CAMPTOTHECIN [4]; 10 nM): 0.546 ± 0.056
surviving fraction (CAMPTOTHECIN [4]; 50 nM): 0.158 ± 0.011
surviving fraction (CAMPTOTHECIN [4]; 100 nM): 0.0843 ± 0.0055
surviving fraction (CAMPTOTHECIN [4]; 500 nM): 0.0373 ± 0.0067
surviving fraction (CAMPTOTHECIN [4]; 1000 nM): 0.0367 ± 0.0025
surviving fraction (CARBOPLATIN [5]; 0.5 nM): 0.973 ± 0.031
surviving fraction (CARBOPLATIN [5]; 1 nM): 0.96 ± 0.067
surviving fraction (CARBOPLATIN [5]; 5 nM): 1.07 ± 0.032
surviving fraction (CARBOPLATIN [5]; 10 nM): 0.991 ± 0.046
surviving fraction (CARBOPLATIN [5]; 50 nM): 1.1 ± 0.1
surviving fraction (CARBOPLATIN [5]; 100 nM): 1.02 ± 0.019
surviving fraction (CARBOPLATIN [5]; 500 nM): 1.08 ± 0.063
surviving fraction (CARBOPLATIN [5]; 1000 nM): 0.975 ± 0.072
surviving fraction (CELECOXIB [6]; 0.5 nM): 1.05 ± 0.043
surviving fraction (CELECOXIB [6]; 1 nM): 1.05 ± 0.097
surviving fraction (CELECOXIB [6]; 5 nM): 1.16 ± 0.054
surviving fraction (CELECOXIB [6]; 10 nM): 1.17 ± 0.11
surviving fraction (CELECOXIB [6]; 50 nM): 1.2 ± 0.12
surviving fraction (CELECOXIB [6]; 100 nM): 1.19 ± 0.071
surviving fraction (CELECOXIB [6]; 500 nM): 1.22 ± 0.046
surviving fraction (CELECOXIB [6]; 1000 nM): 1.2 ± 0.098
surviving fraction (GEFITINIB [7]; 0.5 nM): 1.11 ± 0.097
surviving fraction (GEFITINIB [7]; 1 nM): 1.08 ± 0.062
surviving fraction (GEFITINIB [7]; 5 nM): 1.14 ± 0.087
surviving fraction (GEFITINIB [7]; 10 nM): 1.11 ± 0.02
surviving fraction (GEFITINIB [7]; 50 nM): 1.07 ± 0.099
surviving fraction (GEFITINIB [7]; 100 nM): 1.028 ± 0.01
surviving fraction (GEFITINIB [7]; 500 nM): 0.588 ± 0.026
surviving fraction (GEFITINIB [7]; 1000 nM): 0.503 ± 0.058
surviving fraction ([8]; 0.5 nM): 1.07 ± 0.03
surviving fraction ([8]; 1 nM): 0.991 ± 0.044
surviving fraction ([8]; 5 nM): 1.07 ± 0.03
surviving fraction ([8]; 10 nM): 1 ± 0.041
surviving fraction ([8]; 50 nM): 1.1 ± 0.038
surviving fraction ([8]; 100 nM): 1.12 ± 0.032
surviving fraction ([8]; 500 nM): 1.05 ± 0.057
surviving fraction ([8]; 1000 nM): 1.03 ± 0.064
surviving fraction (YM155 [9]; 0.5 nM): 0.953 ± 0.021
surviving fraction (YM155 [9]; 1 nM): 0.901 ± 0.035
surviving fraction (YM155 [9]; 5 nM): 0.325 ± 0.039
surviving fraction (YM155 [9]; 10 nM): 0.0717 ± 0.0067
surviving fraction (YM155 [9]; 50 nM): 0.034 ± 0.002
surviving fraction (YM155 [9]; 100 nM): 0.0367 ± 0.0031
surviving fraction (YM155 [9]; 500 nM): 0.0353 ± 0.0065
surviving fraction (YM155 [9]; 1000 nM): 0.0377 ± 0.0021
area under dose-response curve [10]: 2.44
area under dose-response curve (PACLITAXEL [11]): 0.701
area under dose-response curve (OSI-906 [12]): 3.08
area under dose-response curve (CAMPTOTHECIN [13]): 1.41
area under dose-response curve (CARBOPLATIN [14]): 3.37
area under dose-response curve (CELECOXIB [15]): 3.83
area under dose-response curve (GEFITINIB [16]): 3.08
area under dose-response curve [17]: 3.48
area under dose-response curve (YM155 [18]): 0.87

From the supplement of paper PMC6045584
